Read-outs that look alike come from different tables or passages of the source.
Legend:
[1] = biological target: Atlantic cod Ahr1a (Gadus morhua, UniProt A0A6H1Z2L5); experiment: cell-based; conditions: for Activation of Ahr1a (agonist or not): in vitro transactivation; for Ahr1a REP25: EC25 of TCDD divided by concentration of PAC giving 25% of TCDD response; for Efficacy compared to TCDD with Ahr1a: Welch's t-test, Supporting Table S6
[2] = tested on: COS-7 cells; experiment: Resazurin reduction viability assay; format: cell-based, simian; conditions: highest concentrations used; relative to 0.5% DMSO solvent control
Experimental: COS-7 simian kidney cells were seeded onto 96 well plates (10 000 cells/well) in Dulbecco’s modified Eagle’s medium (DMEM) with phenol red, supplemented with 10% fetal bovine serum (FBS), 4 mM L-glutamate, 1 mM sodium pyruvate, and 100 U/mL penicillin–streptomycin (Merck KGaA, Darmstadt, Germany), and cultivated at 37 °C with 5% CO2 for 24 h. Cells were transiently co-transfected with a eukaryotic expression plasmid (pcDNA3.1/Zeo(+), 31 ng/well), pcDNA3.1/Zeo(+)-based plasmids encoding gmAhr1a or gmAhr2a (3 ng/well), gmArnt1 (6 ng/well),[37] a luciferase reporter plasmid containing four DREs (pGudLuc6.1, 30 ng/well), and a β-galactosidase normalization plasmid (pCMV-βGAL, 30 ng/well),[45],[46] using a Mirus TransIT LT-1 transfection reagent according to the recommendations of the supplier. COS-7 cells were seeded and cultivated in DMEM (4500 mg/L glucose), supplemented with 10% FBS, 1 mM sodium pyruvate, and 4 mM L-glutamine. In the exposure medium, FBS was substituted with 10% charcoal-stripped FBS (VWR International, Radnor). To create the exposure media with the highest test concentration, compounds solved in dimethyl sulfoxide (DMSO) were diluted 1:200 in exposure medium, resulting in exposure media with 1× test compound and 0.5% DMSO. The highest concentration exposure media were serially diluted five times (1:2 for the first dilution, then 1:5) in exposure medium supplemented with 0.5% DMSO. Following transfection, cells were incubated in exposure media containing PACs or solvent control (0.5% DMSO) for 24 h. Reporter gene assays were repeated at least three times and with three technical replicates per exposure. TCDD (30 pM to 100 nM) was used as a known agonist in each experiment. Absorbance and luminescence measurements were performed on an EnSpire Multimode plate reader (PerkinElmer, Waltham, MA). While no wavelength filtering was used to measure firefly luciferase activity by luminescence, absorbance measurements to quantify β-galactosidase activity were performed at 420 nm wavelength. The viability of exposed cells was evaluated using the resazurin reduction assay as previously described.[47],[48]
Recorded luminescence was normalized for variation in transfection efficiencies using β-galactosidase enzyme activity. The difference in normalized light units measured in lysates from exposed cells to solvent-exposed cells was calculated and expressed relative to the maximum response in TCDD-exposed cells. Response curves were prepared by nonlinear regression analyses in Prism v7 and used for the determination of half-maximal effective concentration values (EC50) and maximum efficacies (Emax). EC50 values were only determined for compounds that produced a sigmoidal concentration–response curve. Relative effect potencies 25 (REP25) were determined by dividing the EC25 of TCDD by the concentration of PAC necessary to produce a response equal to 25% of the response of TCDD with gmAhrs, essentially as described by Villeneuve et al. and Lam et al.[49],[50] The D’Agostino–Pearson (Ahr activation data) or Kolmogorov–Smirnov (viability data) normality tests were used to confirm the normal distribution of the data. One-way analysis of variance (ANOVA) and Dunnett′s test were used to compare responses at different concentrations of compounds and solvent control mediated via the same Ahr, in addition to comparing metabolic activity in PAC-exposed cells and cells exposed to solvent control in the resazurin reduction assay. Welch′s t-test was used to compare the maximum Ahr-mediated response and potency (Emax and EC50) between Ahr1a or Ahr2a produced by the same test compound (Prism v7).

[3] = biological target: T1, Atlantic cod Ahr2a (Gadus morhua, UniProt A0A6H1Z3G8); experiment: cell-based; conditions: for Activation of Ahr2a (agonist or not): in vitro transactivation; for fold higher REP25 with Ahr2a compared to Ahr1a: Ahr2a versus Ahr1a; for Ahr2a REP25: EC25 of TCDD divided by concentration of PAC giving 25% of TCDD response; for Efficacy compared to TCDD via Ahr2a: Welch's t-test, Supporting Table S6
T1 sequence (A0A6H1Z3G8 1-1127): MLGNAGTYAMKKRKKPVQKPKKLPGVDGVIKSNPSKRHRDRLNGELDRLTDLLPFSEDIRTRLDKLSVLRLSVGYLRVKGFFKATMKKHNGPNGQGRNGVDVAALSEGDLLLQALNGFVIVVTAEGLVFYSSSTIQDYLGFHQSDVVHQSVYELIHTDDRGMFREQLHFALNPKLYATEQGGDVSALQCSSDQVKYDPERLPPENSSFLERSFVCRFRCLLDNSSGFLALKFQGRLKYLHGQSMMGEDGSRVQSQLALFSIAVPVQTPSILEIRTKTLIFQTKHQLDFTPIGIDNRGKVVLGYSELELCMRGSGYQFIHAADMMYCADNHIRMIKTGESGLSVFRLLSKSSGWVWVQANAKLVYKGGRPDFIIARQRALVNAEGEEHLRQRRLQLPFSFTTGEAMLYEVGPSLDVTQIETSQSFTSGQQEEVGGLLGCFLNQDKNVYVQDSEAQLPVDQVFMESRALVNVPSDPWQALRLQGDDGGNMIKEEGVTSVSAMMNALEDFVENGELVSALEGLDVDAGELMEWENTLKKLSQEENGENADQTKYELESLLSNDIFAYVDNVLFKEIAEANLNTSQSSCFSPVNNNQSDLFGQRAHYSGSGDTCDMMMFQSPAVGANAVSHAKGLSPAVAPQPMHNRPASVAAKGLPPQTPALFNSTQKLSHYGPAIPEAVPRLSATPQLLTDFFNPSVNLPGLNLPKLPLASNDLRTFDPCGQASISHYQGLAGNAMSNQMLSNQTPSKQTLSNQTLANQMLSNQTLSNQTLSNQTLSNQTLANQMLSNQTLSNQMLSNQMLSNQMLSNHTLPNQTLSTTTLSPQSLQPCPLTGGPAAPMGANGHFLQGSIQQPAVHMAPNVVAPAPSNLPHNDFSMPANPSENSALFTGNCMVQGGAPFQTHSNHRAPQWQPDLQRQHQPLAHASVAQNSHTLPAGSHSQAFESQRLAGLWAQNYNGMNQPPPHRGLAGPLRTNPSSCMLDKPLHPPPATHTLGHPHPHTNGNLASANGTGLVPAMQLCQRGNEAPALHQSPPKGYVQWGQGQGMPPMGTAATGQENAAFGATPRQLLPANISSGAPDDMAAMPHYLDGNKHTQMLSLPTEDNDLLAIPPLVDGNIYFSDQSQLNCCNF

[4] = design: method as in PMID 29505926; conditions: cited from earlier work; for toxic equivalent factor (TEF): toxic potential relative to the toxicity of BAP
[5] = percent of maximum efficacy determined for TCDD, COS-7 cells, 24 h exposure, None = no agonistic response significantly different from solvent
[6] = Supplementary Table S5, read-out: Potency (EC50, nM) Ahr1a
[7] = percent of maximum efficacy determined for TCDD, COS-7 cells, 24 h exposure, None = no agonistic response significantly different from solvent, read-out: Ahr1a Relative Emax (%)
[8] = COS-7 cells, 24 h exposure, read-out: Ahr2a EC50
[9] = Supplementary Table S5, read-out: Potency (EC50, nM) Ahr2a
[10] = percent of maximum efficacy determined for TCDD, COS-7 cells, 24 h exposure, None = no agonistic response significantly different from solvent, read-out: Ahr2a Relative Emax (%)
[11] = Ahr1a EC50 (nM), COS-7 cells, 24 h exposure
[12] = COS-7, read-out: Ahr1a Relative Emax (%)
[13] = Ahr2a EC50 (nM), COS-7 cells, 24 h exposure
[14] = COS-7, read-out: Ahr2a Relative Emax (%)
[15] = Potency (EC50, nM) Ahr2a, Supplementary Table S5
[16] = COS-7 cells, 24 h exposure, read-out: Ahr1a EC50

Chain of Atlantic cod Ahr1a (A0A6H1Z2L5 1-957): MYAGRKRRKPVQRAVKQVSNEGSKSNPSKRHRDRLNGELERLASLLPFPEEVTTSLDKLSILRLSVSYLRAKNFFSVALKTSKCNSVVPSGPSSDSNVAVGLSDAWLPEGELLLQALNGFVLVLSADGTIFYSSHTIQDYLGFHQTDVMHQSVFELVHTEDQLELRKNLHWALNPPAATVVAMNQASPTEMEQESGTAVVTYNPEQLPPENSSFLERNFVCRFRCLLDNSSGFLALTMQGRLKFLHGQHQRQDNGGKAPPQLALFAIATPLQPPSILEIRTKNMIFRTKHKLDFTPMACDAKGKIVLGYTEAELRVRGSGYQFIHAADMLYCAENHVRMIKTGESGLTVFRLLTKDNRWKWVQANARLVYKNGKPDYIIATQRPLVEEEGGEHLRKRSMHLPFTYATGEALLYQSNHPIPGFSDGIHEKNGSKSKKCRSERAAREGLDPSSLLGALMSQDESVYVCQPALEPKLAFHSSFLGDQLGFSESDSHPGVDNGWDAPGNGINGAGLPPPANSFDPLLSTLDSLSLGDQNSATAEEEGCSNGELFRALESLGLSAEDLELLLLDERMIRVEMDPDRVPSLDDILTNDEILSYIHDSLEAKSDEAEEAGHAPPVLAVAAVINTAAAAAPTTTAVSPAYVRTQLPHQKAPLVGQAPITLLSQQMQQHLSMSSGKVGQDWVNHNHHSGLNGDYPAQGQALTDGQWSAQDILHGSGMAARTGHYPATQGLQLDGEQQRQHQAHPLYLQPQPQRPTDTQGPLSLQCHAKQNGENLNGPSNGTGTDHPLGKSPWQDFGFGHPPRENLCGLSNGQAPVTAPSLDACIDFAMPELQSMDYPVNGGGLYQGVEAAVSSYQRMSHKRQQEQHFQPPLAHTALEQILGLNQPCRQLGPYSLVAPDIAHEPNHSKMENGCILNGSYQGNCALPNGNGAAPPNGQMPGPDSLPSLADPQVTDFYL
Chain of Atlantic cod Ahr1a (A0A8C5CZZ9 1-645 partner): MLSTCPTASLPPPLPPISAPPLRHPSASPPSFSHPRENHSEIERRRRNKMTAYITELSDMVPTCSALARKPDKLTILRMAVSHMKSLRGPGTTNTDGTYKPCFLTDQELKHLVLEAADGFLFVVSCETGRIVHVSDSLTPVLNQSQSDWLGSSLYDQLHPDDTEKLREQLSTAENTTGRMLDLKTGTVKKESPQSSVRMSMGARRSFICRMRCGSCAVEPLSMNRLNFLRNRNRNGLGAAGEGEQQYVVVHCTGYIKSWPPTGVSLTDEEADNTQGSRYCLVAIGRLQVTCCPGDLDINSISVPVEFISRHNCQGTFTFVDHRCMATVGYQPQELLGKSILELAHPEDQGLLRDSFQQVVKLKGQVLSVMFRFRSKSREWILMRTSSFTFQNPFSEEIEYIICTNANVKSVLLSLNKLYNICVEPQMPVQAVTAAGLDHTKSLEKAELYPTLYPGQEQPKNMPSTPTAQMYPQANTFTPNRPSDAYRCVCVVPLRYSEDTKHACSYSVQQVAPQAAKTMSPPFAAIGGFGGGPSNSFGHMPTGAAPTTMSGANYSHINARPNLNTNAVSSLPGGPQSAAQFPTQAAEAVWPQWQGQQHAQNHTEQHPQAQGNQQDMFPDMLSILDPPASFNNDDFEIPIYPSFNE

Structure (SMILES)	Metabolic activity (cell viability) of exposed COS-7 cells [2]	Ahr1a REP25 [1]	EC50 [1, 6] [nM]	Efficacy compared to TCDD with Ahr1a [1]	Emax [1, 7] [%]	fold higher REP25 with Ahr2a compared to Ahr1a [3]	EC50 [3, 8] [nM]	Ahr2a REP25 [3]	EC50 [3, 9] [nM]	Emax [3, 10] [%]	Efficacy compared to TCDD via Ahr2a [3]	EC50 [1, 16] [nM]	further results
Cc1cc2ccc3ccccc3c2cc1C [2,3-DMP, 2,3-Dimethylphenanthrene]	slight reduction in metabolic activities	–	–	–	–	–	–	–	–	–	–	–	Activation of Ahr1a (agonist or not) [1]: did not activate; Ahr1a Relative Emax (%) [1, 5]: None; Activation of Ahr2a (agonist or not) [3]: did not activate; Ahr2a Relative Emax (%) [3, 5]: None
Cc1cc2c3ccccc3ccc2c2ccccc12 [6-MC, 6-Methylchrysene]	slight reduction in metabolic activities	0.00064	3540	efficacies similar to that of TCDD	90.6	5- to 10 fold	2260	0.0031	88.8	89.8	–	–	–
Oc1cccc2c1ccc1c3ccccc3ccc21 [1-COH, Chrysene-1-ol]	slight reduction in metabolic activities	0.0045	–	higher efficacies (superefficacies) than TCDD	–	–	–	0.0077	–	–	lower efficacies in comparison to TCDD	–	EC50 [1, 11]: 485 nM; Emax [1, 12]: 116%; Emax ([1]; COS-7, read-out: Efficacy (Emax, %) Ahr1a): 116%; EC50 ([1]; Potency (EC50, nM) Ahr1a, Supplementary Table S5): 485 nM; EC50 [3, 13]: 633 nM; Emax [3, 14]: 72.8%; EC50 [3, 15]: 633 nM
COc1cccc2ccc3c4ccccc4ccc3c12 [4-MOC, 4-Methoxychrysene]	slight reduction in metabolic activities	0.033	–	lower efficacies than TCDD	83.8	5- to 10 fold	30.9	0.206	–	93.7	–	43.8	–
COc1ccc2ccc3c4ccccc4ccc3c2c1 [3-MOC, 3-Methoxychrysene]	slight reduction in metabolic activities	0.0056	–	lower efficacies than TCDD	66.6	5- to 10 fold	98.6	0.0588	–	80.8	lower efficacies in comparison to TCDD	195	–
Oc1ccc2ccc3c4ccccc4ccc3c2c1 [3-COH, Chrysene-3-ol]	slight reduction in metabolic activities	0.00257	345	lower efficacies than TCDD	86.5	–	275	0.0099	274	66.1	lower efficacies in comparison to TCDD	345	–
c1ccc2c(c1)ccc1c3ccccc3ccc21 [CHR, Chrysene]	–	0.00052	481	lower efficacies than TCDD	40.8	–	–	–	3440	–	lower efficacies in comparison to TCDD	481	Activation of Ahr1a (agonist or not) [1]: solely activate Ahr1a; toxic equivalent factor (TEF) [4]: 0.01; Emax ([3]; COS-7, Supplementary Table S5, read-out: Efficacy (Emax, %) Ahr2a): 3.6%; Activation of Ahr2a (agonist or not) [3]: solely activate Ahr1a; Ahr2a Relative Emax (%) [3, 5]: None
Cc1cccc2c1ccc1c3ccccc3ccc21 [1-MC, 1-Methylchrysene]	–	0.0070	–	lower efficacies than TCDD	–	–	–	0.022	–	–	lower efficacies in comparison to TCDD	–	EC50 [1, 11]: 175 nM; Emax [1, 12]: 45.8%; agonistic potential, times higher than CHR ([4]; from TEF values): 10 times; toxic equivalent factor (TEF) [4]: 0.1; EC50 [3, 13]: 172 nM; Emax [3, 14]: 43.6%; EC50 [3, 15]: 172 nM

Reference: article PMC8600679, “Substituted Two- to Five-Ring Polycyclic Aromatic Compounds Are Potent Agonists of Atlantic Cod (Gadus morhua) Aryl Hydrocarbon Receptors Ahr1a and Ahr2a” (Environmental Science & Technology, 2021)
